A short description of data set [1]: Kinetic solubility. The class given is physicochemical. The settings on record: kinetic from dmso stock. As for the experimental part:
Starting from a 20 mM stock solution of test compound in 100% DMSO, dilutions were prepared to a theoretical concentration of 400 μM in duplicates in phosphate-buffered saline pH 7.4 (PBS) (138 mM NaCl, 2.7 mM KCl, 10 mM K-phosphate) and 100 mM citrate buffer pH 3.0 with 2% final DMSO.
The experimental compound dilutions in PBS and citrate buffer were further allowed to equilibrate at 25° C. on a thermostatic orbital shaker for two hours and then centrifuged at 14000 rpm, 5 min and filtered through HTS filter plates using a vacuum manifold. The filtrates of test compounds were diluted 2-fold with acetonitrile with 2% DMSO before measuring. In parallel, compound dilutions in 50% acetonitrile/buffer were prepared to the theoretical concentrations of 0 μM (blank), 100 μM, 200 μM and 400 μM with 2% final DMSO to generate calibration curves.
Ondansetron (Sigma Aldrich USA, cat #03639) was used as a reference to control proper assay performance. 200 μl of each sample were transferred to a 96-well plate and solubility was measured in a 200-550 nm range (in steps of 5 nm). The measurements were performed using a Spectra Max Plus reader in UV-Vis mode. Acquisition and analysis of the data were performed using SoftMax Pro v.5.4 (Molecular Devices) and Excel 2010 data analysis software. Proper absorbance wavelengths for calculations were selected for each compound manually based on absorbance maximums (absolute absorbance unit values for the minimum and maximum concentration points within 0-3 OD range). Each of the final datasets was additionally visually evaluated by the operator and goodness of fit (R2) is calculated for each calibration curve.

The target of data set [2] is CYP2C19 (Homo sapiens (Human), UniProt P33261). The experiment in a line: CYP inhibition, CYP2C19. The class given is in vitro ADME. The note with it: test compound at 10 μM, read-out: % Inhibition (PIN) 2C19. As to the method:
(§1) The aim of this assay is to determine the inhibitory potential of a test compound. A major concern for drug-drug-interaction is cytochrome P450 inhibition. Reversible CYP inhibition was determined in human liver microsomes using specific probe substrates for human cytochrome P450 isoenzymes CYP1A2, 2C9, 2C19, 2D6 and 3A4. […]
(§2) A 10 mM stock solution of test compound is prepared in methanol. This stock is further serially diluted 1:3 in methanol and then added to mixture containing 50 mM potassium phosphate buffer pH7.4, human liver microsomes (BD Gentest) and probe substrate. After pre-warming 5 min at 37° C., the reaction is started by adding co-factor mix ([…] glucose-6-phosphate, 1.7 mg/mL NADP, 6 U/mL of glucose-6-phosphate dehydrogenase), resulting in a final concentration of test compound at 10 μM (2% MeOH).
(§3) Final concentrations of co-factor mix components are as follows: 1.56 mg/mL glucose-6-phosphate, 0.34 mg/mL NADP, 1.2 U/mL of glucose-6-phosphate dehydrogenase.
(§4) After incubation at 37° C., the reaction (aliquot of 50 μL) is terminated with 150 μL CH3CN:MeOH (2:1) solution with internal standard (warfarin for 2C9, diclofenac for all other tested isoforms). Samples are centrifuged and the supernatant fractions analyzed by LC-MS/MS.
(§5) The instrument responses (ratio of test compound and internal standard peak areas) are referenced to those for solvent controls (assumed as 100%) in order to determine the percentage reduction in probe metabolism. Percent of control activity vs. concentration plots are generated and fitted using GraphPad Prism software to generate IC50.

In data set [3] the target is human AT1R (Homo sapiens (Human), UniProt P30556). The experiment in a line: Counterscreen radioligand binding assay, displacement of 125I-[Sar1, Ile8]-Angiotensin II, hAT1R WT. The note with it: 125I-[Sar1, Ile8]-Ang II, semi-quantitative score; for inhibition at 1 µM: compound at 1 μM, read-out: % Displaced radioligand at 1 μM; for inhibition at 10 µM: compound at 10 μM, read-out: % Displaced radioligand at 10 μM. The essentials: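 Membranes from HEK-293 cells expressing human AT1R were incubated for one hour at 25° C, pH 7.4, with 0.05 nM radiolabelled [Sar1, Ile8]-Ang II and test ligand. Bound radioactivity was collected on PEI-soaked filters, with 10 μM unlabelled [Sar1]-Ang II defining non-specific binding. Results are percent displacement at 1 μM and […], or IC50 from eight-point duplicate curves.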
A general note: A counterscreen serves to expose hits that act by an unwanted route or on another target.

Data set [4] deals with CYP2D6 (Homo sapiens (Human), UniProt P10635). Put plainly: CYP inhibition, CYP2D6. The note with it: test compound at 10 μM, read-out: % Inhibition (PIN) 2D6. The class given is in vitro ADME. As for the experimental part: as §1, §2, §3, §4, §5
For data set [5], the target named is human AT2R fused to Cb23 (Homo sapiens, UniProt P50052). The experiment in a line: Radioligand binding assay, displacement of 125I-[Sar1, Ile8]-Angiotensin II, hAT2R Cb23. The note with it: displacement of 125I-[Sar1, Ile8]-Angiotensin II, human AT2R fused to Cb23, HEK-293 cell membrane preparations; read-out: Binding affinity on hAT2R_Cb23 IC50. In outline: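 Membranes from HEK-293 cells expressing human AT2R fused to Cb23 were incubated with 0.05 nM 125I-[Sar1, Ile8]-Angiotensin II in 100 μL buffer (50 mM Tris, 5 mM MgCl2, 1 mM EDTA, 0.1% BSA, pH 7.4) for one hour at 25° C. Ligands were tested as eight-point dose-response curves in duplicate, with C21 and Angiotensin II as references.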

Where [6] appears, read: aqueous buffer, kinetic solubility, phosphate-buffered saline pH 7.4, 2% DMSO, 25° C., two hours, read-out: PBS solubility, pH 7.4.
[7] abbreviates: citrate buffer, 25 °C, pH 3, aqueous buffer, read-out: Citrate buffer solubility, pH 3.0.

≈ marks a conversion by molar mass, not a printed value. Where two headings read alike, the source gives them in different places.

Sequence of human AT1R (P30556 whole entry): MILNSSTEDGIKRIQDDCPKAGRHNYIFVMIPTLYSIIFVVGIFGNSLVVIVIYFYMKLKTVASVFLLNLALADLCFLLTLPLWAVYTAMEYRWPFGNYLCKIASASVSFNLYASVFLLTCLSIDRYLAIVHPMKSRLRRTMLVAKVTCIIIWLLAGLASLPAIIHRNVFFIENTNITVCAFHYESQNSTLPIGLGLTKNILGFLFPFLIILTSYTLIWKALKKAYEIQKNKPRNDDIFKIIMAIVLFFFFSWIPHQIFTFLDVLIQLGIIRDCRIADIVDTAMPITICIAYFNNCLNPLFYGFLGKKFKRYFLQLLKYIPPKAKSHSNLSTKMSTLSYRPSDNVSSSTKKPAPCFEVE
Sequence of CYP2C19 (P33261 whole entry): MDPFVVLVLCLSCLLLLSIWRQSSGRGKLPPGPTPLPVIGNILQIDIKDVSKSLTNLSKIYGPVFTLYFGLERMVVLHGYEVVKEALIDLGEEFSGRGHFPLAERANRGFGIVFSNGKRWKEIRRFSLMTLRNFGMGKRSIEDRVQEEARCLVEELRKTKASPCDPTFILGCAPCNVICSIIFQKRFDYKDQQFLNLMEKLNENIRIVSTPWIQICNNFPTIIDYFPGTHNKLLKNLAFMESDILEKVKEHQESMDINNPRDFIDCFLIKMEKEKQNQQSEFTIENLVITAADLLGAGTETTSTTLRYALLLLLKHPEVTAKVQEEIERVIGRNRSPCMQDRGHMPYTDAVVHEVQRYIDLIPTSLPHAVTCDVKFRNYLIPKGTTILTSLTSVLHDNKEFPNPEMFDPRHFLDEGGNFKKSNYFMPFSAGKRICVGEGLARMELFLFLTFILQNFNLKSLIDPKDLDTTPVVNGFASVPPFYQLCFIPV
Sequence of CYP2D6 (P10635 whole entry, the tested form may be a part): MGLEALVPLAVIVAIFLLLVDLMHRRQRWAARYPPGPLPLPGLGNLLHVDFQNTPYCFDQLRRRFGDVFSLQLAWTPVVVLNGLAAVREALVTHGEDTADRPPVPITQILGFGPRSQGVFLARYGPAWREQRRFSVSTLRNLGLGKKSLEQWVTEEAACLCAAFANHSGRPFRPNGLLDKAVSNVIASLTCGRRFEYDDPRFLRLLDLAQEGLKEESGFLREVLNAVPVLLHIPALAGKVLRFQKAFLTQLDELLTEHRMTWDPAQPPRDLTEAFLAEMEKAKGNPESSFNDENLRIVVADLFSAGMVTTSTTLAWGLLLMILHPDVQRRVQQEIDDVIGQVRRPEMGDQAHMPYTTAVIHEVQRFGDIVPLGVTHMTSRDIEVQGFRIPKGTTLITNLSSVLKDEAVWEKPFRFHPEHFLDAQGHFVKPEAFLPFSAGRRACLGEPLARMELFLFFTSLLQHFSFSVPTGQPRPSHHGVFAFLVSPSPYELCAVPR
Sequence of human AT2R fused to Cb23 (P50052 whole entry, looked up, the tested form may be a part): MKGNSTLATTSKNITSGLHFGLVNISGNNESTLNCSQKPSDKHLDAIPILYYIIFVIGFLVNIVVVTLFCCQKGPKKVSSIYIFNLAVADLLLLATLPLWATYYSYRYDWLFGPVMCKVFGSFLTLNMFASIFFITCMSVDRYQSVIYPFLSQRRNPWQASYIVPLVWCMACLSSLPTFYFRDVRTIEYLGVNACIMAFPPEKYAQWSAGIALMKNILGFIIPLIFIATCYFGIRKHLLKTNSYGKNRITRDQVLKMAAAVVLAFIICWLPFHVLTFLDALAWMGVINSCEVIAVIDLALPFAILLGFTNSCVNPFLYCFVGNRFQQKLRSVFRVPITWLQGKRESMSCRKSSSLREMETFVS

As a reminder, the solubility is the dissolved amount per volume that the medium holds. By IC50 is commonly meant the concentration that gives 50% inhibition. For `CC(C)Oc1ccc(-c2nn[nH]n2)c(N2CCN(Cc3nc4ccccc4n3C)CC2)c1` [Compound A-24, 2-[[4-[5-isopropoxy-2-(2H-tetrazol-5-yl)phenyl]piperazin-1-yl]methyl]-1-methyl-benzimidazole], the solubility at 2 h in data set [1] (setting [6]) and in data set [1] (setting [7]) was at least 400 µM in each case. Further, the inhibition at 10 µM in data set [2] is 30.9%; in data set [3], under 30%; in data set [4] it was 3.85%. Also, in data set [3], the inhibition at 1 µM is under 30%. The IC50 in data set [5] is 7.14 µM.
Regarding `CC(C)Cc1ccc(-c2nn[nH]n2)c(N2CCN(Cc3nc4ccccc4c(=O)[nH]3)CC2)c1` [Compound A-31, 2-[[4-[5-isobutyl-2-(2H-tetrazol-5-yl)phenyl]piperazin-1-yl]methyl]-3H-quinazolin-4-one], the solubility at 2 h is at least 400 µM in data set [1] (setting [6]) and 40 µM (≈ 17.8 µg/mL) in data set [1] (setting [7]). Moreover, the inhibition at 10 µM in data set [2] is 73%; in data set [3], under 30%; in data set [4] it was 23.1%. Further, the inhibition at 1 µM in data set [3] is under 30%. Besides, the IC50 in data set [5] stood at 2.07 µM.
Regarding `CC(C)Oc1ccc(-c2nn[nH]n2)c(N2CCN(Cc3nc4ccccc4c(=O)[nH]3)CC2)c1` [Compound A-32], the solubility at 2 h in data set [1] (setting [6]) stood at 394 µM (≈ 176 µg/mL); in data set [1] (setting [7]), 399 µM (≈ 178 µg/mL). For the same compound, the inhibition at 10 µM was 48.6% in data set [2], under 30% in data set [3] and 38.2% in data set [4]. Also, the inhibition at 1 µM in data set [3] is under 30%. Moreover, the IC50 in data set [5] was found to be 14.7 µM.
For `CC(C)Cc1ccc(-c2nn[nH]n2)c(N2CCN(Cc3cccnn3)CC2)c1` [Compound A-90, 3-[[4-[5-isobutyl-2-(2H-tetrazol-5-yl)phenyl]piperazin-1-yl]methyl]pyridazine], the solubility at 2 h in data set [1] (setting [6]) and in data set [1] (setting [7]) was at least 400 µM each time. Moreover, the inhibition at 10 µM in data set [2] was 27.9%; in data set [3] it was under 30%; in data set [4] it was 1.84%. In addition, the inhibition at 1 µM in data set [3] was under 30%. Further, the IC50 in data set [5] was determined as 2.03 µM.
Consider `CC(C)Cc1cc(F)c(-c2nn[nH]n2)c(N2CCN(Cc3cccnn3)C(C)C2)c1` (stereo not shown) [Compound A-173, 3-[[4-[3-fluoro-5-isobutyl-2-(2H-tetrazol-5-yl)phenyl]-2-methyl-piperazin-1-yl]methyl]pyridazine], for which the solubility at 2 h in data set [1] (setting [6]) turned out to be 376 µM (≈ 154 µg/mL); in data set [1] (setting [7]), 356 µM (≈ 146 µg/mL). Moreover, the values for the inhibition at 10 µM in data set [2], in data set [3] and in data set [4] were 8.93%, under 30% and 16.3%, respectively. For the same compound, the inhibition at 1 µM in data set [3] was under 30%. In data set [5], the IC50 stood at 0.016 µM.
On to `CC(C)Cc1cc(F)c(-c2nn[nH]n2)c(N2CCN(Cc3cccnn3)[C@@H](C)C2)c1` [Compound A-174, 3-[[(2S)-4-[3-fluoro-5-isobutyl-2-(2H-tetrazol-5-yl)phenyl]-2-methyl-piperazin-1-yl]methyl]pyridazine], for which the solubility at 2 h in data set [1] (setting [6]) was 385 µM (≈ 158 µg/mL); in data set [1] (setting [7]), 356 µM (≈ 146 µg/mL). Also, the inhibition at 10 µM in data set [2] is 26.5%; in data set [3], under 30%; in data set [4], 9.35%. Moreover, the inhibition at 1 µM in data set [3] is under 30%. The IC50 in data set [5] worked out at 0.00235 µM.
For the compound `CCC1CN(c2cc(CC(C)C)cc(F)c2-c2nn[nH]n2)CCN1Cc1cccnn1` (stereo not shown) [Compound A-178, 3-[[2-ethyl-4-[3-fluoro-5-isobutyl-2-(2H-tetrazol-5-yl)phenyl]piperazin-1-yl]methyl]pyridazine], the solubility at 2 h in data set [1] (setting [6]) and in data set [1] (setting [7]) was at least 400 µM throughout. Moreover, the inhibition at 10 µM was 7.77% in data set [2], under 30% in data set [3] and 25.6% in data set [4]. Also, the inhibition at 1 µM in data set [3] is under 30%. In addition, the IC50 in data set [5] is 0.0335 µM.

The values are drawn from patent publication US20240368133A1, “Compounds for the Treatment of Pain, in Particular, Neuropathic Pain, and/or Other Diseases or Disorders that are Associated with AT2R and/or AT2R Mediated Signaling” (Confo Therapeutics N.V., priority 2021, published 2024).
